# Measured values taken from patent US20170073690A1, “ANTAGONISTS OF SLC38A9 AND THEIR USE IN THERAPY” (CEMM - Forschungzentrum Fuer Molekulare Medizin GMBH, priority 2014, published 2017).
# Tests used:
# [1] = target: T1, recombinant human SLC38A9 (Homo sapiens, UniProt Q8NBW4); experiment: uptake and efflux of [3H]-labelled amino acids by SLC38A9 in proteoliposomes; assay type: biochemical; details: for direct transport of [3H]-labelled amino acid by SLC38A9: 10 μM labelled amino acid, 60 min, relative to glutamine transport, FIG. 10C
# T1 construct: made in house; host or cells: E. coli Lemo21(DE3)pLysS
# T1 sequence (Q8NBW4 1-561): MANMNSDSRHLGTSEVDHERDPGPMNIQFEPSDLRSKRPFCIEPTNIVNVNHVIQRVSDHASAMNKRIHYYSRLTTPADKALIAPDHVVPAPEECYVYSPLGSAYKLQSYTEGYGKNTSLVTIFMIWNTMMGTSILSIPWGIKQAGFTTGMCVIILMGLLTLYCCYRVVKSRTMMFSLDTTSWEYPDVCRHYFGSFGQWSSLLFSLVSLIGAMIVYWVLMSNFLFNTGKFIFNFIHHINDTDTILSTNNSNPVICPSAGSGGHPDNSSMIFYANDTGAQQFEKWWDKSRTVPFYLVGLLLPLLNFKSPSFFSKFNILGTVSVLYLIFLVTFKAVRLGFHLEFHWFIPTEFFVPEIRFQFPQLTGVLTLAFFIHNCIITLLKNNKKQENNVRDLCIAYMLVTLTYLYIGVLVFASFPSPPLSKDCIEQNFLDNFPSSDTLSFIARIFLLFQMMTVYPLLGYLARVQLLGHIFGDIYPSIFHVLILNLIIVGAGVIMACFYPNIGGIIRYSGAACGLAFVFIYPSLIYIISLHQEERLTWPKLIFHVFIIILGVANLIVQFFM
# Experimental: a, Orientation of SLC38A9 in proteoliposomes. After purification on Ni-chelating chromatography His-SLC38A9 was incubated overnight at 37° C. in absence or in presence of 1 U thrombin. Immunoblot using anti-His or anti-SLC38A9 antibody. b, Proteoliposomes reconstituted with SLC38A9 were centrifuged, resuspended in isosmotic buffer, incubated overnight at 37° C. with 1 U thrombin, solubilized with SDS Immunoblot using anti-His or anti-SLC38A9 antibody. c, Time course of glutamine uptake by SLC38A9 in proteoliposomes reconstituted with purified SLC38A9 or with control empty vector protein. The uptake of 10 μM [^3H]-glutamine was measured at different time intervals. Transport was stopped as described in Materials and Methods. Values represent means of specific transport ±s.d. from 8 different experiments. Significance was estimated by Student's t test (*P<0.01 or **P<0.001). d, Inhibition of the [^3H]-glutamine uptake in proteoliposomes. The indicated amino acids were added together with 10 μM [^3H]-glutamine Transport was measured at 60 min Values represent means of percent residual activity with respect to control (without added inhibitor) ±s.d. from 3 independent experiments. Significance was estimated by Student's t test (*P<0.01 or **P<0.001). e, Time course of glutamine efflux from proteoliposomes reconstituted with purified SLC38A9. Proteoliposomes were incubated with external 10 μM [^3H]-glutamine After 120 min the residual external radioactivity was removed by gel-filtration and the time course of [^3H]-glutamine efflux was measured as for the uptake (see FIG. 3 c). […] HEK293T cells were transfected with the indicated tagged RAGA (0 or RAGB (g) and RAGC constructs or empty vector (−). Anti-HA immunoprecipitates and cell extracts were treated with PNGase and analysed by immunoblot with the indicated antibodies. Mutations are the following: RAGA: Q66L and T21N; RAGB: Q99L and T54N; RAGC: S75N and Q120N
# a, Purification of SLC38A9. […] 1 mM MeAIB (α-(methylamino)isobutyric acid) was added together with 10 μM [^3H]-glutamine Transport was measured at 60 min. […] Significance was estimated by Student's t test (*P<0.01 or **P<0.001). c, Uptake of the indicated [3H]-labelled amino acids (10 μM) by SLC38A9 in proteoliposomes measured at 60 min. Values represent means of percent in respect to glutamine transport measured in the same experiment ±s.d. from three independent experiments. […] The uptake of 10 μM [^3H]-glutamine was measured at different time intervals, in the presence of the indicated intraliposomal sodium concentrations. Transport was stopped as described in Materials and Methods and calculated by subtracting the radioactivity associated to proteoliposomes reconstituted with the empty vector fraction. […]
# [2] = target: T1, recombinant human SLC38A9; experiment: inhibition of [3H]-glutamine uptake in SLC38A9 proteoliposomes; assay type: biochemical; details: for transport capacity of SLC38A9 for amino acids (transport preference): inferred from binding preference, FIG. 3d; for binding capacity of SLC38A9 for amino acids (binding preference): ranking read from FIG. 3d; for competition for glutamine transport (inhibition of [3H]-glutamine uptake): added together with 10 μM [3H]-glutamine, transport at 60 min, MeAIB 1 mM, FIG. 3D, FIG. 10B
# Experimental: a, Orientation of SLC38A9 in proteoliposomes. After purification on Ni-chelating chromatography His-SLC38A9 was incubated overnight at 37° C. in absence or in presence of 1 U thrombin. Immunoblot using anti-His or anti-SLC38A9 antibody. b, Proteoliposomes reconstituted with SLC38A9 were centrifuged, resuspended in isosmotic buffer, incubated overnight at 37° C. with 1 U thrombin, solubilized with SDS Immunoblot using anti-His or anti-SLC38A9 antibody. c, Time course of glutamine uptake by SLC38A9 in proteoliposomes reconstituted with purified SLC38A9 or with control empty vector protein. The uptake of 10 μM [^3H]-glutamine was measured at different time intervals. Transport was stopped as described in Materials and Methods. Values represent means of specific transport ±s.d. from 8 different experiments. Significance was estimated by Student's t test (*P<0.01 or **P<0.001). d, Inhibition of the [^3H]-glutamine uptake in proteoliposomes. The indicated amino acids were added together with 10 μM [^3H]-glutamine Transport was measured at 60 min Values represent means of percent residual activity with respect to control (without added inhibitor) ±s.d. from 3 independent experiments. Significance was estimated by Student's t test (*P<0.01 or **P<0.001). e, Time course of glutamine efflux from proteoliposomes reconstituted with purified SLC38A9. Proteoliposomes were incubated with external 10 μM [^3H]-glutamine After 120 min the residual external radioactivity was removed by gel-filtration and the time course of [^3H]-glutamine efflux was measured as for the uptake (see FIG. 3 c). Values represent means of specific transport ±s.d. from 3 different experiments. f and g. HEK293T cells were transfected with the indicated tagged RAGA (0 or RAGB (g) and RAGC constructs or empty vector (−). Anti-HA immunoprecipitates and cell extracts were treated with PNGase and analysed by immunoblot with the indicated antibodies. Mutations are the following: RAGA: Q66L and T21N; RAGB: Q99L and T54N; RAGC: S75N and Q120N
# a, Purification of SLC38A9. Lanes represent empty vector control and SLC38A9 expressed in E. coli and purified on Ni-chelating chromatography Immunoblot of the same fractions using anti-His antibody or anti-SLC38A9 are shown. b, Inhibition of the [^3H]-glutamine uptake in proteoliposomes. 1 mM MeAIB (α-(methylamino)isobutyric acid) was added together with 10 μM [^3H]-glutamine Transport was measured at 60 min. Values represent means of percent residual activity with respect to control (without added inhibitor) ±s.d. from 3 independent experiments. Significance was estimated by Student's t test (*P<0.01 or **P<0.001). c, Uptake of the indicated [3H]-labelled amino acids (10 μM) by SLC38A9 in proteoliposomes measured at 60 min. Values represent means of percent in respect to glutamine transport measured in the same experiment ±s.d. from three independent experiments. Significance was estimated by Student's t test (*P<0.01 or **P<0.001). d, Time course of glutamine uptake by SLC38A9 in proteoliposomes reconstituted with the purified protein fraction. The uptake of 10 μM [^3H]-glutamine was measured at different time intervals, in the presence of the indicated intraliposomal sodium concentrations. Transport was stopped as described in Materials and Methods and calculated by subtracting the radioactivity associated to proteoliposomes reconstituted with the empty vector fraction. Values represent means of specific transport ±s.d. from 3 different experiments. e, Effect of pH on the reconstituted SLC38A9. Reconstitution was performed as described in Materials and Methods except that 20 mM Hepes/Tris at the indicated pH was used. Transport was started by adding 10 μM [^3H]-glutamine in 20 mM Hepes/Tris buffer at the indicated pH to proteoliposomes and stopped at 30 min. Results are means of specific transport rate ±s.d. from 3 different experiments f-g HEK293T cells were starved in medium without amino acids and serum for the indicated times. […]
# mTORC1 [3] = experiment: amino acid-induced mTORC1 activation in HEK293T (immunoblot of phosphorylated S6 kinase, S6, ULK1); assay type: cell-based, human; details: lentivirus-encoded shRNA vs shGFP, starved 50 min, amino acids 10 or 20 min, FIG. 4A
# Experimental: (§1) After 72 h, cells were treated as in a.d, HeLa were transfected with the indicated siRNA. After 72 h, cells were starved for 50 min in medium without amino acids and serum and then stimulated with amino acids and insulin (1 uM). Cell lysates were analysed by immunoblot with antibodies against phosphorylated threonine 389 S6 kinase, phosphorylated S6 and total S6 kinase e, Model of Sentor/SLC38A9 as part of the lysosomal amino acid-sensing machinery
# […]. HEK293T cells were co-transfected with packaging plasmids and the shRNA-encoding plasmids. Cells were washed 16 h after transfection. Virus-containing supernatants were collected 24 h after washing, filtered and used for infection. After infection, HEK293T cells were selected with puromycin (4 μg/ml). For siRNA-mediated knockdown, HEK293T cells were transfected with HiPerfect (Qiagen) with 60 nM of siRNA pool. After 72 h cells were subjected to amino acid stimulation as described. ON-TARGETplus SMARTpool against SLC38A9 (L-007337-02-0005, Target sequences: […] (SEQ ID NO: 77), […] (SEQ ID NO: 78), […] (SEQ ID NO: 79), […] (SEQ ID NO: 80)), LAMTOR1 (L-020916-02-0010, Target sequences: […] (SEQ ID NO: 81), […] (SEQ ID NO: 82), […] (SEQ ID NO: 83), […] (SEQ ID NO: 84)) and Non-targeting pool (D-001810-10-05) were from ThermoScientific. […]
# mTORC1 [4] = experiment: cycloheximide-induced mTORC1 activation in HEK293T (immunoblot); assay type: cell-based, human; details: shRNA, starved 50 min, cycloheximide 25 μg/ml 10 or 20 min, FIG. 4B
# Experimental: as §1, with “After 72 h, cells were starved for 50 min in medium without amino acids and serum and then stimulated with amino acids and insulin (1 uM).” left out
# […]. HEK293T cells were co-transfected with packaging plasmids and the shRNA-encoding plasmids. Cells were washed 16 h after transfection. Virus-containing supernatants were collected 24 h after washing, filtered and used for infection. After infection, HEK293T cells were selected with puromycin (4 μg/ml). For siRNA-mediated knockdown, HEK293T cells were transfected with HiPerfect (Qiagen) with 60 nM of siRNA pool. After 72 h cells were subjected to amino acid stimulation as described. ON-TARGETplus SMARTpool against SLC38A9 (L-007337-02-0005, Target sequences: […] (SEQ ID NO: 77), […] (SEQ ID NO: 78), […] (SEQ ID NO: 79), […] (SEQ ID NO: 80)), LAMTOR1 (L-020916-02-0010, Target sequences: […] (SEQ ID NO: 81), […] (SEQ ID NO: 82), […] (SEQ ID NO: 83), […] (SEQ ID NO: 84)) and Non-targeting pool (D-001810-10-05) were from ThermoScientific.
# HEK293T cells were washed with PBS and incubated in amino acid-free RPMI for 50 min Cell were then stimulated for 10 or 20 min by the addition of RPMI containing a two time concentrated solution of amino acids. […]
# HEK293T cells [5] = experiment: cell size measurement (nucleus diameter, automated microscopy); assay type: cell-based, human; details: shRNA knockdown vs shGFP, nucleus diameter as proxy, FIG. 5C
# Experimental: (§2) a, Table of SLCs belonging to amino acid transporter families robustly expressed in HEK293 and K562 cells as monitored by RNAseq. SLC members of amino acid transporter-containing families^16 and expressed (FPKM>0.5) in both cell lines were ranked according to their expression level. […] Sparse and interphase cells were selected using image analysis and machine learning, and nucleus diameter (μm) was used as robust proxy for cell size^33. […] 10^5 cells were seeded and counted every 24 h. Mean values ±s.d. from triplicates e. HEK293 Flp-In TREx cells inducibly expressing SLC38A9 were treated or not with doxycycline (Dox) for 24 h. Where indicated, cell lysates were treated with PNGase (1 hour, 37° C.) and analysed by immunoblot (IB)
# Images were taken by automated microscopy using the PerkinElmer Operetta with 20× magnification in confocal mode. Images were analysed using CellProfiler (www at cellprofiler.org), CellClassifier (http at www.pelkmanslab.org/?page_id=63), Population Context measurement code (https at www.pelkmanslab.org/?page_id=1150) and custom Matlab code written specifically for this study. […] We used the typical nucleus diameter (i.e. the diameter of a circle with the same area as that measured for each nucleus) as a robust proxy for cell size^6. […]
# HEK293T cells [6] = experiment: cell proliferation measurement (cell counting every 24 h); assay type: cell-based, human; details: shRNA knockdown vs shGFP, FIG. 5D
# Experimental: as §2
molecule,measurement,setting,value
"NC(=O)C[C@H](N)C(=O)O [[3H]asparagine, asparagine]",direct transport of [3H]-labelled amino acid by SLC38A9,[1],competence
NC(=O)CC[C@H](N)C(=O)O [glutamine],transport capacity of SLC38A9 for amino acids (transport preference),[2],highest transport capacity
same,binding capacity of SLC38A9 for amino acids (binding preference),[2],highest binding capacity
same,initial rate of glutamine transport (uptake),"[1]; 10 μM glutamine, time course, proteoliposomes, 25° C., pH 6.5",0.42±0.10 nmol per mg of protein per minute
same,rate of [3H]-glutamine efflux from proteoliposomes,"[1]; loaded with external 10 μM [3H]-glutamine for 120 min, FIG. 3E",1.7 ± 0.30 nmol/min/mg
"CCGGGCCUUGACAACAGUUCUAUAUCUCGAGAUAUAGAACUGUUGUCAAGGCUUUUUUG (chemistry not given here; listed as Homo sapiens) [shRNA, shRNA-encoding pLKO.1 targeting SLC38A9 (ThermoFisher), lentivirally delivered; targets nt 1931-1951 of human SLC38A9 mRNA]",amino acid-induced mTORC1 activation,mTORC1 [3],strong reduction
same,cycloheximide-induced mTORC1 activation,mTORC1 [4],impaired
same,cell size,HEK293T cells [5],clear reduction
same,ability of the targeted cells to proliferate,HEK293T cells [6],impairment
"CNC(C)(C)C(=O)O [MeAIB, α-(methylamino)isobutyric acid]",competition for glutamine transport (inhibition of [3H]-glutamine uptake),[2],had not effect
N[C@@H](CS)C(=O)O [cysteine],transport capacity of SLC38A9 for amino acids (transport preference),[2],highest transport capacity
same,binding capacity of SLC38A9 for amino acids (binding preference),[2],highest binding capacity
N=C(N)NCCC[C@H](N)C(=O)O [arginine],competition for glutamine transport (inhibition of [3H]-glutamine uptake),[2],low ability
same,direct transport of [3H]-labelled amino acid by SLC38A9,[1],competence
C[C@H](N)C(=O)O [alanine],transport capacity of SLC38A9 for amino acids (transport preference),[2],lowest transport capacity
same,binding capacity of SLC38A9 for amino acids (binding preference),[2],lowest binding capacity
